Data taken from patent US11292773B2, “Small molecule inhibitors of BCL-2-associated death promoter (BAD) phosphorylation” (NATIONAL UNIVERSITY OF SINGAPORE, priority 2017, dated 2022).

Columns and labels:
[1] = biological target: T1, Human recombinant BAD protein (Homo sapiens, UniProt Q92934); test: Surface plasmon resonance analysis (BIAcore); format: binding; settings: SPR
T1 construct: purchased MyBiosource, USA MBS143012
T1 sequence (Q92934 1-168): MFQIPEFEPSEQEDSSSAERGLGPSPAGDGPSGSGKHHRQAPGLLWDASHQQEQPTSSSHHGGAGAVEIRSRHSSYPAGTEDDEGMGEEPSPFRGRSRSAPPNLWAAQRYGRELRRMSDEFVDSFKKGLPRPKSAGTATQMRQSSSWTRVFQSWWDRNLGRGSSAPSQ
Experimental: To provide molecular interaction of the most promising candidate, NPB binding affinity to BAD, we performed surface plasmon resonance (SPR) measurements with immobilized BAD subunit using NPB as the analyte. We know that BAD could bind to BAD subunit in vitro. […] The recombinant BAD was immobilized on CM5 sensor chip. To determine the association and dissociation curves, various concentrations of NPB were injected individually onto the surface of a sensor chip coated with BAD. The overlaid sensorgrams shown in FIG. 14 were analyzed collectively.
Molecular interactions were analyzed based on surface plasmon resonance using a BIAcore-2000 system (BIAcore AB, Uppsala, Sweden). Human recombinant BAD protein (Catalog No. MBS143012, MyBiosource, USA) was immobilized on a sensor chip as described by the manufacturer protocol. To examine the interaction of BAD with NPB, various concentrations of NPB (20 to 100 μM) in the running buffer (HBS-EP, pH 7.4, BIAcore AB) were injected onto the surface of the BAD-immobilized sensor chip with a flow rate of 15 μl/min as per the manufacturer's directions. NPB was allowed to interact with BAD subunit for 2 min for association and dissociation, respectively, after which the sensor chip was regenerated by injecting 1 M NaCl for 2 min before the next injection. Using BIA evaluation software 4.1 (BIAcore AB), the kinetic parameters were such as association and dissociation rate constants (ka and kd), dissociation equilibrium constants (Kd) using a 1:1 binding model with mass transfer. Sensograms obtained were overlaid using BIA evaluation software.

[2] = tested on: AKT; test: Western blot of pAKT (Ser473), AKT, pBAD (Ser99) and BAD in carcinoma cell lines; format: cell-based, human; set-up: dose or concentration left out as unconfirmed; settings: MCF7, Caov-3, Ishikawa, AsPC-1
Experimental: (A) WB analysis was used to assess the levels of phosphorylated human BAD (at Ser75 and Ser99) and BAD protein in the range of carcinoma cell lines, including mammary, ovarian, pancreatic, endometrial, hepatocellular, colon and prostate cancer after treatment with NPB (5 μM). Total BAD was used as an input control for cell lysate. (B) WB analysis was used to assess the levels of pBAD (Ser99) and pAKT (Ser473), AKT and BAD in MCF7, Caov-3, Ishikawa, and AsPC-1 cells. […] Depletion of AKT expression was achieved using transient-transfection of short hairpin (sh)-RNA (1&2) directed to AKT transcript as described in methodology. β-ACTIN was used as an input control for cell lysate. For WB analysis, soluble whole cell extracts were run on an SDS-PAGE and immunoblotted as described in materials methodology. The sizes of detected protein bands in kDa are shown on the left side. Note: #; non-transformed immortalized-cell line.
The upstream AKT Ser/Thr kinase regulates the phosphorylation of hBAD at Ser99 [13]. We therefore determined whether NPB inhibits the phosphorylation of hBAD (Ser99) via modulation of the activity of AKT (as indicated by phosphorylation of Ser473) using western blot analysis. We observed no change in the levels of pAKT or levels of total AKT protein after exposure of four different carcinoma cells lines (MCF7, Caov-3, Ishikawa, and AsPC-1) to 10 μM NPB. […]

[3] = biological target: T2, hBAD phosphorylation (Ser75, Ser99) (Homo sapiens, UniProt Q92934); test: Western blot of hBAD Ser75 and Ser99 phosphorylation in 25 carcinoma cell lines; format: cell-based; settings: all tested carcinoma cell lines, NPB 5 μM
T2 construct: endogenous in cells; host or cells: MCF7 (A6); 25 carcinoma cell lines of seven cancer types (A7)
T2 sequence (Q92934 1-168): T1 sequence (Q92934 1-168)
Experimental: (A) WB analysis was used to assess the levels of phosphorylated human BAD (at Ser75 and Ser99) and BAD protein in the range of carcinoma cell lines, including mammary, ovarian, pancreatic, endometrial, hepatocellular, colon and prostate cancer after treatment with NPB (5 μM). Total BAD was used as an input control for cell lysate. (B) WB analysis was used to assess the levels of pBAD (Ser99) and pAKT (Ser473), AKT and BAD in MCF7, Caov-3, Ishikawa, and AsPC-1 cells. 5 μM each of AKT inhibitor (IV) and NPB was used to treat cells. Depletion of AKT expression was achieved using transient-transfection of short hairpin (sh)-RNA (1&2) directed to AKT transcript as described in methodology. β-ACTIN was used as an input control for cell lysate. For WB analysis, soluble whole cell extracts were run on an SDS-PAGE and immunoblotted as described in materials methodology. The sizes of detected protein bands in kDa are shown on the left side. Note: #; non-transformed immortalized-cell line.
We next analyzed the effect of NPB on phosphorylation of hBAD at both Ser75 and Ser99 by western blot analysis in 25 carcinoma cell lines derived seven different types of cancer.

Kd ([1]; 1:1 binding model with mass transfer, read-out: dissociation equilibrium constants (Kd)): 37.1 µM | kon ([1]; immobilized BAD, NPB 20 to 100 μM, read-out: association rate constant): 1400 M⁻¹ s⁻¹ | koff ([1]; immobilized BAD, NPB 20 to 100 μM, read-out: dissociation rate constant): 0.054 s⁻¹ | phosphorylation of BAD at the Ser99 site [3]: largely inhibits | phosphorylation of hBAD at the Ser75 site [3]: no effect
SMILES: O=C(NC1CCCC1)c1cccc(C(c2ccccc2O)N2CCN(c3cccc(Cl)c3Cl)CC2)c1 (stereo not shown) [NPB, N-cyclopentyl-3-((4-(2,3-dichlorophenyl)piperazin-1-yl)(2-hydroxyphenyl)methyl) benzamide]
BAD phosphorylation at the Ser99 site [2]: inhibition | levels of pAKT or total AKT protein [2]: no change
